Converted amounts (≈) assume the structure as drawn. Like-named read-outs stand apart in the source and are kept apart here.
Tested on: mouse fibroblasts (L929)
Assay: Activity against mouse fibroblasts (L929)
Format: cell-based
Conditions: for IC50: read-out: Activity against mouse fibroblasts (L929, IC 50/ng/ml)

Compound | Activity against mouse fibroblasts (L929, IC 50/ng/ml) (L929 mouse fibroblasts) | also measured
C/C(=C\c1csc(C)n1)[C@@H]1C/C=C/CCC[C@H](C)[C@H](O)[C@@H](C)C(=O)[C@@H](C)[C@@H](O)CC(=O)O1 (relative stereo) [Compound 28, trans-Epothilone C1] | (28) 400 ng/ml | –
C/C(=C\c1csc(C)n1)[C@@H]1C/C=C/CCC[C@H](C)[C@H](O)[C@@H](C)C(=O)[C@H](C)[C@@H](O)CC(=O)O1 (relative stereo) [Compound 29, trans-Epothilone C2] | (29) 80 ng/ml | –
C/C(=C\c1csc(C)n1)[C@@H]1C[C@@H]2O[C@@H]2CCC[C@H](C)[C@H](O)[C@@H](C)C(=O)C(C)(C)[C@@H](O)CC(=O)O1 [Compound 1, Epothilone A, reference compound] | (1) 4 ng/ml | –
C/C(=C\c1csc(C)n1)[C@@H]1C[C@@H]2O[C@]2(C)CCC[C@H](C)[C@H](O)[C@@H](C)C(=O)C(C)(C)[C@@H](O)CC(=O)O1 [Compound 2, Epothilone B, reference compound] | (2) 1-2 ng/ml | –
C/C(=C\c1csc(CO)n1)[C@@H]1C[C@@H]2O[C@@H]2CCC[C@H](C)[C@H](O)[C@@H](C)C(=O)C(C)(C)[C@@H](O)CC(=O)O1 [Compound 3, Epothilone E, reference compound] | (3) 10 ng/ml | –
C/C(=C\c1csc(CO)n1)[C@@H]1C[C@@H]2O[C@]2(C)CCC[C@H](C)[C@H](O)[C@@H](C)C(=O)C(C)(C)[C@@H](O)CC(=O)O1 [Compound 4, Epothilone F, reference compound] | – | Activity against mouse fibroblasts (L929, IC 50/ng/ml): (4) 1.5 ng/ml
C/C(=C\c1csc(C)n1)[C@@H]1C[C@@H]2O[C@@H]2CCC[C@H](C)[C@H](O)[C@@H](C)C(=O)[C@H](C)[C@@H](O)CC(=O)O1 [Compound 5, Epothilone A1] | (5) 20 ng/ml | –
C/C(=C\c1csc(C)n1)[C@@H]1C[C@@H]2O[C@@H]2CCC[C@H](C)[C@H](O)[C@@H](C)C(=O)[C@@H](C)[C@@H](O)CC(=O)O1 [Compound 6, Epothilone A2] | (6) 7 ng/ml | –
Cc1nc(/C=C/[C@@H]2C[C@@H]3O[C@@H]3CCC[C@H](C)[C@H](O)[C@@H](C)C(=O)C(C)(C)[C@@H](O)CC(=O)O2)cs1 [Compound 7, Epothilone A8] | (7) 20 ng/ml | –
Cc1nc(/C=C(\CO)[C@@H]2C[C@@H]3O[C@@H]3CCC[C@H](C)[C@H](O)[C@@H](C)C(=O)C(C)(C)[C@@H](O)CC(=O)O2)cs1 [Compound 8, Epothilone A9] | (8) 100 ng/ml | –
CCc1nc(/C=C(\C)[C@@H]2C[C@@H]3O[C@]3(C)CCC[C@H](C)[C@H](O)[C@@H](C)C(=O)C(C)(C)[C@@H](O)CC(=O)O2)cs1 [Compound 9, Epothilone B10] | – | IC50 (L929 mouse fibroblasts): 1.5 ng/mL (≈ 0.00288 µM)
C/C(=C\c1coc(C)n1)[C@@H]1C[C@@H]2O[C@]2(C)CCC[C@H](C)[C@H](O)[C@@H](C)C(=O)C(C)(C)[C@@H](O)CC(=O)O1 [Compound 11, Epothilone G2] | (11) 1 ng/ml | –
C/C(=C\c1coc(C)n1)[C@@H]1C/C=C\CCC[C@H](C)[C@H](O)[C@@H](C)C(=O)C(C)(C)[C@@H](O)CC(=O)O1 [Compound 12, Epothilone H1] | (12) 120 ng/ml | –
C/C1=C/C[C@@H](/C(C)=C/c2coc(C)n2)OC(=O)C[C@H](O)C(C)(C)C(=O)[C@H](C)[C@@H](O)[C@@H](C)CCC1 [Compound 13, Epothilone H2] | (13) 11 ng/ml | –
C/C(=C\c1csc(C)n1)[C@@H]1C/C=C\CCC[C@H](C)[C@H](O)[C@@H](C)C(=O)C(C)(C)[C@@H](O)CC(=O)O1 [Compound 14, Epothilone C, reference compound] | (14) 50-100 ng/ml | –
C/C1=C/C[C@@H](/C(C)=C/c2csc(C)n2)OC(=O)C[C@H](O)C(C)(C)C(=O)[C@H](C)[C@@H](O)[C@@H](C)CCC1 [Compound 15, Epothilone D, reference compound] | (15) 20 ng/ml | –
C/C(=C\c1csc(C)n1)[C@@H]1C/C=C\CCC[C@H](C)[C@H](O)[C@@H](C)C(=O)[C@H](C)[C@@H](O)CC(=O)O1 [Compound 16, Epothilone C1] | (16) 200 ng/ml | –
C/C1=C/C[C@@H](/C(C)=C/c2csc(C)n2)OC(=O)C[C@H](O)[C@@H](C)C(=O)[C@H](C)[C@@H](O)[C@@H](C)CCC1 [Compound 17, Epothilone D1] | (17) 20 ng/ml | –
C/C1=C/C[C@@H](/C(C)=C/c2csc(C)n2)OC(=O)C[C@H](O)[C@H](C)C(=O)[C@H](C)[C@@H](O)[C@@H](C)CCC1 [Compound 19, Epothilone D2] | (19) 12 ng/ml | –
C/C(=C\c1csc(C)n1)[C@@H]1C/C=C\CCC[C@H](C)[C@H](O)CC(=O)C(C)(C)[C@@H](O)CC(=O)O1 [Compound 20, Epothilone C3] | (20) 1500 ng/ml | –
C/C(=C\c1csc(C)n1)[C@@H]1C/C=C\CCCC[C@H](O)[C@@H](C)C(=O)C(C)(C)[C@@H](O)CC(=O)O1 [Compound 21, Epothilone C4] | (21) 800 ng/ml | –
C/C(=C\c1csc(C)n1)[C@@H]1C/C=C\CC/C=C(\C)[C@H](O)[C@@H](C)C(=O)C(C)(C)[C@@H](O)CC(=O)O1 [Compound 22, Epothilone C5] | (22) 1500 ng/ml | –
C/C(=C\c1csc(C)n1)[C@@H]1C/C=C\C=C\C[C@H](C)[C@H](O)[C@@H](C)C(=O)C(C)(C)[C@@H](O)CC(=O)O1 [Compound 24, Epothilone C6] | – | IC50 (L929 mouse fibroblasts): 120 ng/mL (≈ 0.252 µM)
Cc1nc(/C=C/[C@@H]2C/C=C\CCC[C@H](C)[C@H](O)[C@@H](C)C(=O)C(C)(C)[C@@H](O)CC(=O)O2)cs1 [Compound 26, Epothilone C8] | (26) 250 ng/ml | –
Cc1nc(/C=C(\CO)[C@@H]2C/C=C\CCC[C@H](C)[C@H](O)[C@@H](C)C(=O)C(C)(C)[C@@H](O)CC(=O)O2)cs1 [Compound 27, Epothilone C9] | (27) 200 ng/ml | –
C/C1=C/C[C@@H](/C(C)=C/c2csc(C)n2)OC(=O)C[C@H](O)C(C)C(=O)C(C)CCC1 (stereo partly shown) [Compound 36, Epothilone K] | – | IC50 (L929 mouse fibroblasts): 180 ng/mL (≈ 0.429 µM)
C/C(=C\c1csc(C)n1)[C@@H](O)C/C=C\CCC[C@H](C)[C@H](O)[C@@H](C)C(=O)C(C)C [Compound 37] | – | IC50 (L929 mouse fibroblasts): 50 ng/mL (≈ 0.123 µM)
Epothilone D5 [Compound 23] | (23) 200 ng/ml | –

— patent publication US6624310B1, “Epothilone minor constituents” (Gesellschaft fuer Biotechnologische Forschung, mbH (GBF), priority 1998, dated 2003)
